Laboratory results reported in patent US6630466B2, “Medicament compositions containing anticholinergically-effective compounds and salmeterol” (priority 1999, dated 2003).
Where “and” joins values, the source holds several entries; their conditions need not be identical. Identical values can stand only once. Counter-ions that a name gives are not always drawn.

Tests used:
[1] = tested on: Heart Frequency of Narcotized Dogs; assay: Heart frequency of narcotized dogs after inhalative application via RESPIMAT (ECG, cardiotachometer)
Protocol: (§1) 18 mongrel dogs with a body weight of 27 to 32 kg. Kept in individual or communal cages, pelleted standard food, last fed approximately 15 hours before the start of the tests, drinking water freely available.
(§2) After pre-medication with 2 mg/kg morphine hydrochloride i.m., 30 mg/kg pentobarbital-sodium (NEMBUTAL®) is slowly injected intravenously. The animals are relaxed with 1.0 mg/kg i.v. suxamethonium.
Registration of heart frequency is via ECG (extremity derivative II) and cardiotachometer.
After an equilibration period of 30 minutes, short-term bronchospasms are generated by i.v. injection of 10 μg/kg acetylcholine chloride—this is repeated 2-3× within a 10-minute period. […] Application of the combinations takes place with the individual combinations with an interval of approximately 1 minute. With the BINEB system, the triggering mechanism takes place at the end of the expiration phase and the atomized solution is pressed into the tracheo-bronchial tree in the following inspiration phase of the breath pump.

[2] = tested on: bronchial resistance of narcotized dogs; assay: Bronchospasmolytic effect: inhibition of ACh-induced increase of pulmonary resistance in narcotized dogs after inhalative application via […]; type: in vivo, dog; conditions: single substances 3 and 10 μg, combination 3 μg + 3 μg
Protocol: as §1, §2
After intubation via a servo ventilator 900C (Siemens), the animals are ventilated with ambient air and oxygen (4:1), frequency 15/min., breath volume 6 to 8 L/min. For registration of the breathing mechanics, breath flow is determined by means of a pressurizing pipe (flesh no. 1), installed directly before the orotracheal tube, of a differential pressure recorder and amplifier DCB-4C. A catheter is placed in the trachea and a second (balloon) catheter is placed in the lung section of the esophagus. Both are connected with a differential pressure recorder and amplifier for determination of the transpulmonary pressure. A breath mechanics computer (IFD-Mühlheim) determines the pulmonary resistance (R) from the registered pressure values. From this, a computer program VAS-1 LA (IFD-Mühlheim) calculates: [formula] […]

[3] = 3 μg inhalative, 1 min after application, individual dog
[4] = 3 μg inhalative, 5 min after application, individual dog
[5] = 3 μg inhalative, 5 min after application, mean value, n = 6
[6] = 3 μg inhalative, 10 min after application, individual dog
[7] = 3 μg inhalative, 20 min after application, individual dog
[8] = 3 μg inhalative, 30 min after application, individual dog
[9] = 3 μg inhalative, 60 min after application, individual dog
[10] = 3 μg inhalative, 120 min after application, individual dog
[11] = 3 μg inhalative, 180 min after application, individual dog
[12] = 3 μg inhalative, 180 min after application, mean value, n = 6
[13] = 10 μg inhalative, 1 min after application, individual dog
[14] = 10 μg inhalative, 5 min after application, individual dog
[15] = 10 μg inhalative, 5 min after application, mean value, n = 6
[16] = 10 μg inhalative, 10 min after application, individual dog
[17] = 10 μg inhalative, 10 min after application, mean value, n = 6
[18] = 10 μg inhalative, 20 min after application, individual dog
[19] = 10 μg inhalative, 20 min after application, mean value, n = 6
[20] = 10 μg inhalative, 30 min after application, individual dog
[21] = 10 μg inhalative, 30 min after application, mean value, n = 6
[22] = 10 μg inhalative, 60 min after application, individual dog
[23] = 10 μg inhalative, 60 min after application, mean value, n = 6
[24] = 10 μg inhalative, 120 min after application, individual dog
[25] = 10 μg inhalative, 180 min after application, individual dog
[26] = 10 μg inhalative, 180 min after application, mean value, n = 6

For `COc1ccc(CC(C)NCC(O)c2ccc(O)c(NC=O)c2)cc1` (centres unmarked) [formoterol fumarate, formoterol], the “Heart frequency (beats/min.)” value [1, 3] was 67.00 beats/min. and 91.00 beats/min. and 102.00 beats/min, the “Heart frequency, % alteration” value [1, 3] was 7.94% and −7.52% and 11.67% and 13.04% and 21.13% and 15.68% and the “Heart frequency (beats/min.)” value ([1]; 3 μg inhalative, 1 min after application, mean value, n = 6) was 103.17 beats/min. The “Heart frequency (beats/min.)” value [1, 4] was 140.00 beats/min. and 64.00 beats/min. and 95.00 beats/min, the “Heart frequency, % alteration” value [1, 4] was 11.11% and 5.26% and 6.67% and 18.01% and 28.64% and 25.41% and the “Heart frequency (beats/min.)” value [1, 5] was 109.50 beats/min. For the same compound, the “Heart frequency, % alteration” value [1, 5] was 15.85%, the “Heart frequency (beats/min.)” value [1, 6] was 100.00 beats/min. and 110.00 beats/min and the “Heart frequency, % alteration” value [1, 6] was 36.51% and 21.80% and 66.67% and 36.65% and 29.58%. The “Heart frequency, % alteration” value ([1]; 3 μg inhalative, 10 min after application, mean value, n = 6) was 37.72%, the “Heart frequency (beats/min.)” value [1, 7] was 165.00 beats/min. and 95.00 beats/min. and 100.00 beats/min. and 141.00 beats/min and the “Heart frequency, % alteration” value [1, 7] was 41.80% and 24.06% and 54.33% and 24.44% and 32.39% and 36.22%. For the same compound, the “Heart frequency, % alteration” value ([1]; 3 μg inhalative, 20 min after application, mean value, n = 6) was 36.17%, the “Heart frequency (beats/min.)” value [1, 8] was 159.00 beats/min. and 89.00 beats/min. and 95.00 beats/min and the “Heart frequency, % alteration” value [1, 8] was 46.03% and 48.33% and 18.01% and 38.38%. For the same compound, the “Heart frequency, % alteration” value ([1]; 3 μg inhalative, 30 min after application, mean value, n = 6) was 34.41%, the “Heart frequency (beats/min.)” value [1, 9] was 86.00 beats/min. and 94.00 beats/min. and 140.00 beats/min and the “Heart frequency, % alteration” value [1, 9] was 41.80% and 15.04% and 43.33% and 31.46% and 38.38%. The “Heart frequency, % alteration” value ([1]; 3 μg inhalative, 60 min after application, mean value, n = 6) was 31.13%, the “Heart frequency (beats/min.)” value [1, 10] was 88.00 beats/min. and 94.00 beats/min. and 130.00 beats/min. and 120.00 beats/min and the “Heart frequency, % alteration” value [1, 10] was 21.69% and 46.67% and 29.73%. The “Heart frequency (beats/min.)” value [1, 11] was 140.00 beats/min. and 86.00 beats/min. and 96.00 beats/min. and 130.00 beats/min. and 120.00 beats/min, the “Heart frequency, % alteration” value [1, 11] was 14.29% and 5.26% and 43.33% and 19.25% and 29.73% and the “Heart frequency (beats/min.)” value [1, 12] was 113.33 beats/min. For the same compound, the “Heart frequency, % alteration” value [1, 12] was 22.32%, the “Heart frequency (beats/min.)” value [1, 13] was 96.00 beats/min and the “Heart frequency, % alteration” value [1, 13] was 22.75% and 9.02% and 81.67% and 19.25% and −1.41% and 31.89%. For the same compound, the “Heart frequency, % alteration” value ([1]; 10 μg inhalative, 1 min after application, mean value, n = 6) was 27.20%, the “Heart frequency (beats/min.)” value [1, 14] was 136.00 beats/min. and 120.00 beats/min. (2×) and the “Heart frequency, % alteration” value [1, 14] was 61.90% and 2.26% and 143.33% and 49.07% and 12.68% and 31.89%. For the same compound, the “Heart frequency (beats/min.)” value [1, 15] was 132.83 beats/min, the “Heart frequency, % alteration” value [1, 15] was 50.19% and the “Heart frequency (beats/min.)” value [1, 16] was 191.00 beats/min. and 152.00 beats/min. and 144.00 beats/min. and 160.00 beats/min. and 130.00 beats/min. and 155.00 beats/min. The “Heart frequency, % alteration” value [1, 16] was 64.02% and 43.61% and 153.33% and 78.88% and 50.23% and 40.54%, the “Heart frequency (beats/min.)” value [1, 17] was 155.33 beats/min and the “Heart frequency, % alteration” value [1, 17] was 71.77%. The “Heart frequency (beats/min.)” value [1, 18] was 204.00 beats/min. and 156.00 beats/min. and 135.00 beats/min. and 157.00 beats/min, the “Heart frequency, % alteration” value [1, 18] was 66.14% and 53.38% and 155.00% and 93.79% and 48.36% and 45.95% and the “Heart frequency (beats/min.)” value [1, 19] was 160.50 beats/min. For the same compound, the “Heart frequency, % alteration” value [1, 19] was 77.10%, the “Heart frequency (beats/min.)” value [1, 20] was 207.00 beats/min. and 150.00 beats/min. (2×) and 156.00 beats/min. and 140.00 beats/min. and 159.00 beats/min and the “Heart frequency, % alteration” value [1, 20] was 68.25% and 55.64% and 150.00% and 93.79% and 40.85% and 51.35%. For the same compound, the “Heart frequency (beats/min.)” value [1, 21] was 160.33 beats/min, the “Heart frequency, % alteration” value [1, 21] was 76.65% and the “Heart frequency (beats/min.)” value [1, 22] was 210.00 beats/min. and 149.00 beats/min. and 140.00 beats/min. (2×) and 150.00 beats/min. and 163.00 beats/min. For the same compound, the “Heart frequency, % alteration” value [1, 22] was 72.49% and 57.89% and 148.33% and 73.91% and 40.85% and 51.35%, the “Heart frequency (beats/min.)” value [1, 23] was 158.67 beats/min and the “Heart frequency, % alteration” value [1, 23] was 74.14%. The “Heart frequency (beats/min.)” value [1, 24] was 209.00 beats/min. and 140.00 beats/min. and 135.00 beats/min. and 176.00 beats/min, the “Heart frequency, % alteration” value [1, 24] was 86.24% and 57.14% and 143.33% and 73.91% and 45.95% and the “Heart frequency, % alteration” value ([1]; 10 μg inhalative, 120 min after application, mean value, n = 6) was 73.79%. For the same compound, the “Heart frequency (beats/min.)” value [1, 25] was 205.00 beats/min. and 141.00 beats/min. and 130.00 beats/min. and 135.00 beats/min. and 152.00 beats/min, the “Heart frequency, % alteration” value [1, 25] was 60.85% and 54.14% and 135.00% and 61.49% and 45.95% and the “Heart frequency (beats/min.)” value [1, 26] was 151.33 beats/min. The “Heart frequency, % alteration” value [1, 26] was 65.59%, the “maximum increase of heart frequency” value ([1]; high dosage (10 μg)) was “over 90%” and the “increase of heart frequency after the end of the test” value ([1]; high dosage (10 μg), end of test (180 minutes)) was “over 80%”. For the same compound, the “onset of maximum bronchospasmolytic effect” value [2] was “rapidly occurs” and the “effective duration of bronchospasmolytic effect” value ([2]; test duration 180 minutes) was “comparatively short”.
